Legend:
[1] = target: T1, Cytochrome P450 11B2, mitochondrial (Homo sapiens, UniProt P19099)
T1 sequence (P19099 whole entry): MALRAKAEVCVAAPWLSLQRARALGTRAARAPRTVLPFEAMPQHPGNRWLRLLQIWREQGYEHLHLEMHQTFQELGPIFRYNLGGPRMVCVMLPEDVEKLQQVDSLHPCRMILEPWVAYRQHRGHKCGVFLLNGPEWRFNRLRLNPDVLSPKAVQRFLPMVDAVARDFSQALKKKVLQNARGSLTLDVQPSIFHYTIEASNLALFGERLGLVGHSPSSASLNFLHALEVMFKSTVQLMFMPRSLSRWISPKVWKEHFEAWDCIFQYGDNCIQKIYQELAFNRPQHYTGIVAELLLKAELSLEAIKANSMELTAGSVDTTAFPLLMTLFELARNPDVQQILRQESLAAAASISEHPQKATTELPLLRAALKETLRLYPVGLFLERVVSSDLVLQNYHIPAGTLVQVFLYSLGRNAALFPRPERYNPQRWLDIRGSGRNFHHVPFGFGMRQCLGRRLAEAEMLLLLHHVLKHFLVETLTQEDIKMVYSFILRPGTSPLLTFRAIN
Description: Inhibition of human CYP11B2 expressed in hamster V79MZ cells using [3H]-11-deoxycorticosterone as substrate after 1 hr by HPLC analysis

V79MZ = assay: Selectivity ratio of IC50 for human CYP11B1 expressed in hamster V79MZ cells to IC50 for human CYP11B2 expressed in hamster V79MZ cells; type: cell-based
[2] = target: T2, Cytochrome P450 11B1, mitochondrial (Homo sapiens, UniProt P15538)
T2 sequence (P15538 whole entry): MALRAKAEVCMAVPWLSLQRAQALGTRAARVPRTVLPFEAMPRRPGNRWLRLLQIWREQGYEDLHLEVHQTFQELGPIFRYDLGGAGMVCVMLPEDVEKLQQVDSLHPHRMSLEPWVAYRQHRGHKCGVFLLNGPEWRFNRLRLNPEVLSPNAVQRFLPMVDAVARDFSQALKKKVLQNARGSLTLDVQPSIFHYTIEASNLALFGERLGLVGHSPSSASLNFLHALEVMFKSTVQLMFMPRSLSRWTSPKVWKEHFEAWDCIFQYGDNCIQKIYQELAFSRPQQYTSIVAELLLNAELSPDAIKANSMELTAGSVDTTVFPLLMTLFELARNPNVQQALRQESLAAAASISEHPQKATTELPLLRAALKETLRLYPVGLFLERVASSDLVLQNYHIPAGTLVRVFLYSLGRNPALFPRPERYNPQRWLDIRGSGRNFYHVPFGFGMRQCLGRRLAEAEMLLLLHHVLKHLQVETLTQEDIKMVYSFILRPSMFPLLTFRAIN
Description: Inhibition of human CYP11B1 expressed in hamster V79MZ cells using [3H]-11-deoxycorticosterone as substrate after 1 hr by HPLC analysis

CYP19 (aromatase) = target: T3, CYP19 (aromatase) (Homo sapiens, UniProt P11511); assay: Inhibition of human recombinant CYP19 using [1beta3H]androstenedione as substrate at 500 nM; conditions: recombinant human CYP19, probe [1beta3H]androstenedione
T3 sequence (P11511 whole entry): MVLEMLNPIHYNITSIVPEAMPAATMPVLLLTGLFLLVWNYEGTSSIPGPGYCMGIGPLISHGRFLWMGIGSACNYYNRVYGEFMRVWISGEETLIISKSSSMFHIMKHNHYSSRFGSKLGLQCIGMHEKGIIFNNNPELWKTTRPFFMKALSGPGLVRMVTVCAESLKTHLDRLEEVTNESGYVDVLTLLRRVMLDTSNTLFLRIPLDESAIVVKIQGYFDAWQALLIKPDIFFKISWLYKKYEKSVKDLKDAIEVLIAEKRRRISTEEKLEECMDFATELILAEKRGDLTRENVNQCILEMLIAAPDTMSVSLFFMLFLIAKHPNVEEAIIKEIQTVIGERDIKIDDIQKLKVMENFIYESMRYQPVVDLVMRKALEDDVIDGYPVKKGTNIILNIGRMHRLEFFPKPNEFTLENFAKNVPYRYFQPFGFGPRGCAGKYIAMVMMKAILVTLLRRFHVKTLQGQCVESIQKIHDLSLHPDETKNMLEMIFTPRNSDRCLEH

CYP17 = target: T4, CYP17 (Homo sapiens, UniProt P05093); assay: Inhibition of human recombinant CYP17 expressed in Escherichia coli using progesterone as substrate at 2 uM; conditions: probe progesterone
T4 sequence (P05093 whole entry): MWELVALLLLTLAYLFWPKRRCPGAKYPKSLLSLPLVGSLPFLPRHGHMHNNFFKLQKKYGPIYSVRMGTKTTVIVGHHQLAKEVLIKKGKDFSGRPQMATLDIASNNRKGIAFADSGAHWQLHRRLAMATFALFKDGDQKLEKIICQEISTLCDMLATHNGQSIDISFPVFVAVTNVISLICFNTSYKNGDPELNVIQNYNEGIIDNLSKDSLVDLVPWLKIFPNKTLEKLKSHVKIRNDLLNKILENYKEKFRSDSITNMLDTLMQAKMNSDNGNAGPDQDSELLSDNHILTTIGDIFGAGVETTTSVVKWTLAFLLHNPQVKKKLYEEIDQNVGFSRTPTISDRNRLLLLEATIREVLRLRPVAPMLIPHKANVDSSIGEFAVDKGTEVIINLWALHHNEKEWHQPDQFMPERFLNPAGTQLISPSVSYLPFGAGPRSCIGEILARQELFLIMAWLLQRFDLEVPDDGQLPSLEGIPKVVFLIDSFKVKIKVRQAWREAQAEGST

[3] = target: T1, Cytochrome P450 11B2, mitochondrial; type: cell-based; conditions: V79MZ, 1 h

Row | Compound | IC50 [1] | Ratio IC50 (V79MZ) | IC50 [2] | inhibition at 0.5 µM (CYP19 (aromatase)) | inhibition at 2 µM (CYP17) | inhibition [3]
1 | COc1ccccc1[S+]([O-])c1c(O)c(-c2cccnc2)cc2ccccc12 (stereo unspecified) | 64 nM | 17 | 1100 nM | < 5% | < 5% | 86%
2 | COc1ccccc1Sc1c(O)c(-c2cccnc2)cc2ccccc12 | – | – | – | – | – | 18%
3 | [O-][S+](c1ccccc1)c1cc(-c2cccnc2)cc2ccccc12 (stereo unspecified) | – | – | – | – | – | 33%
4 | [O-][S+](c1ccc(Cl)c(Cl)c1)c1c(O)c(-c2cccnc2)cc2ccccc12 (stereo unspecified) | 33 nM | 253 | 8330 nM | < 5% | < 5% | 90%
5 | N#Cc1ccc([S+]([O-])c2c(O)c(-c3cccnc3)cc3ccccc23)cc1 (stereo unspecified) | – | – | – | – | – | 47%
6 | [O-][S+](c1cc(C(F)(F)F)cc(C(F)(F)F)c1)c1c(O)c(-c2cccnc2)cc2ccccc12 (stereo unspecified) | 33 nM | 283 | 9350 nM | < 5% | < 5% | 78%
7 | [O-][S+](c1ccccc1)c1c(O)c(-c2cccnc2)cc2ccccc12 (stereo unspecified) | 33 nM | 203 | 6710 nM | < 5% | < 5% | 85%
8 | [O-][S+](c1ccccc1Cl)c1c(O)c(-c2cccnc2)cc2ccccc12 (stereo unspecified) | 22 nM | 204 | 4490 nM | < 5% | < 5% | 90%
9 | [O-][S+](c1cccc(F)c1)c1c(O)c(-c2cccnc2)cc2ccccc12 (stereo unspecified) | 39 nM | 168 | 6550 nM | < 5% | < 5% | 85%
10 | [O-][S+](c1ccc(F)c(Cl)c1)c1c(O)c(-c2cccnc2)cc2ccccc12 (stereo unspecified) | 53 nM | 123 | 6530 nM | < 5% | < 5% | 91%
11 | [O-][S+](c1cccc(C(F)(F)F)c1)c1c(O)c(-c2cccnc2)cc2ccccc12 (stereo unspecified) | 43 nM | 155 | 6670 nM | < 5% | < 5% | 88%
12 | COc1cccc(Sc2c(O)c(-c3cccnc3)cc3ccccc23)c1 | – | – | – | – | – | 20%
13 | [O-][S+](c1ccc(Cl)cc1)c1c(O)c(-c2cccnc2)cc2ccccc12 (stereo unspecified) | 22 nM | 407 | 8950 nM | < 5% | < 5% | 84%
14 | [O-][S+](c1cccs1)c1c(O)c(-c2cccnc2)cc2ccccc12 (stereo unspecified) | 192 nM | 32 | 6160 nM | < 5% | < 5% | 79%
15 | Oc1c(-c2cccnc2)cc2ccccc2c1Sc1ccccc1 | – | – | – | – | – | 22%
16 | COc1ccc([S+]([O-])c2c(O)c(-c3cccnc3)cc3ccccc23)cc1 (stereo unspecified) | 48 nM | 87 | 4200 nM | < 5% | < 5% | 80%
17 | O=S(=O)(c1ccccc1)c1cc2ccccc2cc1-c1cccnc1 | – | – | – | – | – | 16%
18 | [O-][S+](c1ccccc1C(F)(F)F)c1c(O)c(-c2cccnc2)cc2ccccc12 (stereo unspecified) | 53 nM | 96 | 5080 nM | < 5% | < 5% | 86%
19 | [O-][S+](c1ccc(C(F)(F)F)cc1)c1c(O)c(-c2cccnc2)cc2ccccc12 (stereo unspecified) | 25 nM | 248 | 6190 nM | < 5% | < 5% | 81%
20 | N#Cc1cccc([S+]([O-])c2c(O)c(-c3cccnc3)cc3ccccc23)c1 (stereo unspecified) | 46 nM | 186 | 8550 nM | < 5% | < 5% | 84%
21 | [O-][S+](c1ccccc1OC(F)(F)F)c1c(O)c(-c2cccnc2)cc2ccccc12 (stereo unspecified) | 56 nM | 84 | 4710 nM | < 5% | < 5% | 77%
22 | c1ccc(Sc2cc(-c3cccnc3)cc3ccccc23)cc1 | – | – | – | – | – | 15%
23 | [O-][S+](c1ccc(F)cc1)c1c(O)c(-c2cccnc2)cc2ccccc12 (stereo unspecified) | 33 nM | 168 | 5550 nM | < 5% | < 5% | 84%
24 | [O-][S+](c1cc(Cl)cc(Cl)c1)c1c(O)c(-c2cccnc2)cc2ccccc12 (stereo unspecified) | 47 nM | 100 | 4720 nM | < 5% | < 5% | 87%
25 | COc1ccc(Sc2c(O)c(-c3cccnc3)cc3ccccc23)cc1 | – | – | – | – | – | 22%
26 | COc1cccc([S+]([O-])c2c(O)c(-c3cccnc3)cc3ccccc23)c1 (stereo unspecified) | 27 nM | 271 | 7310 nM | < 5% | < 5% | 87%

Source: ChEMBL document CHEMBL3352541, “1-Phenylsulfinyl-3-(pyridin-3-yl)naphthalen-2-ols: a new class of potent and selective aldosterone synthase inhibitors” (Eur J Med Chem, 2015)
